Molecules are shown by their SMILES. Bounds are passed on as bounds.

The term IC50 denotes the point on the concentration scale where inhibition reaches its midpoint.

In the experiment the test system is IL-1β production in PMA-differentiated THP-1 cells. Nature of the experiment: IL-1β production in PMA-differentiated THP-1 cells stimulated with gramicidin (hTHP-1 assay, 2% fetal bovine serum; Procedures 1-3). It counts as cell-based, human. The settings on record: hTHP-1 assay containing 2% fetal bovine serum; class symbols; read-out: hTHP-1 IC50 (Average IC50 of compounds in hTHP-1 assay). The essentials:
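Readout is HTRF of IL-1β in cell-free supernatant after 2 h gramicidin (5 μM) challenge. Cells: THP-1 differentiated with PMA 20 ng/ml for 16-18 h, plated 50,000/well in 2% FBS RPMI, exposed to compound 1 h beforehand at final 100–0.0017 μM, DMSO 0.37%.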
With `CC1CCc2c1cc1c(c2NC(=O)N=S(N)(=O)c2cnc(C(C)(C)O)s2)CCC1` (single isomer, unassigned) [Example 324, (R,S) or (R,R)-2-(2-hydroxypropan-2-yl)-N′-((1-methyl-1,2,3,5,6,7-hexahydro-s-indacen-4-yl)carbamoyl)thiazole-5-sulfonimidamide (from Example 291)], the IC50 was 8 to 40 nM.

For `CC1CCc2cc3c(c(NC(=O)N=S(N)(=O)c4cnc(C(C)(C)O)s4)c21)CCC3` (single isomer, unassigned) [Example 331, (S,S) or (S,R)-2-(2-hydroxypropan-2-yl)-N′-((3-methyl-1,2,3,5,6,7-hexahydro-s-indacen-4-yl)carbamoyl)thiazole-5-sulfonimidamide], the IC50 lay within 5000 to 30000 nM.

On to `CC1CCc2cc3c(c(NC(=O)N=S(N)(=O)c4cnc(C(C)(C)O)s4)c21)CCC3` (single isomer, unassigned) [Example 332, (R,R) or (R,S)-2-(2-hydroxypropan-2-yl)-N′-((3-methyl-1,2,3,5,6,7-hexahydro-s-indacen-4-yl)carbamoyl)thiazole-5-sulfonimidamide], for which the IC50 lay in the range of 200 to 1000 nM.

In the case of `CC1CCc2cc3c(c(NC(=O)N=S(N)(=O)c4cnc(C(C)(C)O)s4)c21)CCC3` (single isomer, unassigned) [Example 333, (S,R) or (S,S)-2-(2-hydroxypropan-2-yl)-N′-((3-methyl-1,2,3,5,6,7-hexahydro-s-indacen-4-yl)carbamoyl)thiazole-5-sulfonimidamide], the IC50 fell in the range of 1000 to 5000 nM.

Take `CC1CCc2cc3c(c(NC(=O)N=S(N)(=O)c4cnc(C(C)(C)O)s4)c21)CCC3` (single isomer, unassigned) [Example 334, (R,S) or (R,R)-2-(2-hydroxypropan-2-yl)-N′-((3-methyl-1,2,3,5,6,7-hexahydro-s-indacen-4-yl)carbamoyl)thiazole-5-sulfonimidamide]: the half-maximal inhibitory concentration (IC50) was in the range of 8 to 40 nM.

For the compound `CC(C)(O)c1ncc(S(N)(=O)=NC(=O)Nc2c3c(cc4c2CCC4=O)CCC3)s1` (single isomer, unassigned) [Example 335, (S) or (R)-2-(2-Hydroxypropan-2-yl)-N′-((1-oxo-1,2,3,5,6,7-hexahydro-s-indacen-4-yl)carbamoyl)thiazole-5-sulfonimidamide from Example 293], the IC50 was 1000 to 5000 nM.

On to `CC(C)(O)c1ncc(S(N)(=O)=NC(=O)Nc2c3c(cc4c2CCC4=O)CCC3)s1` (single isomer, unassigned) [Example 336, (R) or (S)-2-(2-Hydroxypropan-2-yl)-N′-((1-oxo-1,2,3,5,6,7-hexahydro-s-indacen-4-yl)carbamoyl)thiazole-5-sulfonimidamide from Example 293], for which the IC50 was in the range of 200 to 1000 nM.

`CC(C)(O)c1csc(S(N)(=O)=NC(=O)Nc2c3c(cc4c2CC4)CCC3)n1` (single isomer, unassigned) [Example 341, (R) or (S)-4-(2-hydroxypropan-2-yl)-N′-((2,4,5,6-tetrahydro-1H-cyclobuta[f]inden-3-yl)carbamoyl)thiazole-2-sulfonimidamide]: the IC50 was less than 8 nM.

Turning to `CC(C)(O)c1csc(S(N)(=O)=NC(=O)Nc2c3c(cc4c2CC4)CCC3)n1` (single isomer, unassigned) [Example 342, (R) or (S)-4-(2-hydroxypropan-2-yl)-N′-((2,4,5,6-tetrahydro-1H-cyclobuta[f]inden-3-yl)carbamoyl)thiazole-2-sulfonimidamide], the IC50 was in the range of 200 to 1000 nM.

As to `CC(C)(O)c1ncc(S(N)(=O)=NC(=O)Nc2c3c(cc4c2OCC4)CCC3)s1` (single isomer, unassigned) [Example 343, (R) or (S)-2-(2-hydroxypropan-2-yl)-N′-((3,5,6,7-tetrahydro-2H-indeno[5,6-b]furan-8-yl)carbamoyl)thiazole-5-sulfonimidamide], the IC50 was 40 to 200 nM.

On to `CC(C)(O)c1ncc(S(N)(=O)=NC(=O)Nc2c3c(cc4c2OCC4)CCC3)s1` (single isomer, unassigned) [Example 344, (R) or (S)-2-(2-hydroxypropan-2-yl)-N′-((3,5,6,7-tetrahydro-2H-indeno[5,6-b]furan-8-yl)carbamoyl)thiazole-5-sulfonimidamide], for which the IC50 was in the range of 1000 to 5000 nM.

For `Cc1nc(C(C)(C)O)ccc1S(N)(=O)=NC(=O)Nc1c2c(cc3c1CCC3)CCC2` (single isomer, unassigned) [Example 345, (R) or (S)-N′-((1,2,3,5,6,7-hexahydro-s-indacen-4-yl)carbamoyl)-6-(2-hydroxypropan-2-yl)-2-methylpyridine-3-sulfonimidamide], the IC50 is 200 to 1000 nM.

With `Cc1nc(C(C)(C)O)ccc1S(N)(=O)=NC(=O)Nc1c2c(cc3c1CCC3)CCC2` (single isomer, unassigned) [Example 346, (R) or (S)-N′-((1,2,3,5,6,7-hexahydro-s-indacen-4-yl)carbamoyl)-6-(2-hydroxypropan-2-yl)-2-methylpyridine-3-sulfonimidamide], the IC50 was 5000 to 30000 nM.

Turning to `CC(C)(O)c1cnc(S(N)(=O)=NC(=O)Nc2c3c(cc4c2CCO4)CCC3)s1` (single isomer, unassigned) [Example 347, (R) or (S)-5-(2-hydroxypropan-2-yl)-N′-((3,5,6,7-tetrahydro-2H-indeno[5,6-b]furan-4-yl)carbamoyl)thiazole-2-sulfonimidamide], the IC50 lay in the range of 8 to 40 nM.

With `CC(C)(O)c1cnc(S(N)(=O)=NC(=O)Nc2c3c(cc4c2CCO4)CCC3)s1` (single isomer, unassigned) [Example 348, (S) or (R)-5-(2-hydroxypropan-2-yl)-N′-((3,5,6,7-tetrahydro-2H-indeno[5,6-b]furan-4-yl)carbamoyl)thiazole-2-sulfonimidamide], the IC50 is 1000 to 5000 nM.

Consider `CC(C)(O)c1cnc(S(N)(=O)=NC(=O)Nc2c3c(cc4c2OCC4)CCC3)s1` (single isomer, unassigned) [Example 349, (S) or (R)-5-(2-hydroxypropan-2-yl)-N′-((3,5,6,7-tetrahydro-2H-indeno[5,6-b]furan-8-yl)carbamoyl)thiazole-2-sulfonimidamide], for which the IC50 was in the range of 1000 to 5000 nM.

As to `CC(C)(O)c1cnc(S(N)(=O)=NC(=O)Nc2c3c(cc4c2OCC4)CCC3)s1` (single isomer, unassigned) [Example 350, (R) or (S)-5-(2-hydroxypropan-2-yl)-N′-((3,5,6,7-tetrahydro-2H-indeno[5,6-b]furan-8-yl)carbamoyl)thiazole-2-sulfonimidamide], the IC50 fell in the range of 40 to 200 nM.

`CC(C)(O)c1cnc(S(N)(=O)=NC(=O)Nc2c3c(c(Br)c4c2CCC4)CCC3)s1` (single isomer, unassigned) [Example 351, (S) or (R)-N′-((8-bromo-1,2,3,5,6,7-hexahydro-s-indacen-4-yl)carbamoyl)-5-(2-hydroxypropan-2-yl)thiazole-2-sulfonimidamide]: the IC50 was in the range of 200 to 1000 nM.

As to `CC(C)(O)c1cnc(S(N)(=O)=NC(=O)Nc2c3c(c(Br)c4c2CCC4)CCC3)s1` (single isomer, unassigned) [Example 352, (R) or (S)-N′-((8-bromo-1,2,3,5,6,7-hexahydro-s-indacen-4-yl)carbamoyl)-5-(2-hydroxypropan-2-yl)thiazole-2-sulfonimidamide], the IC50 is 40 to 200 nM.

Consider `CC(C)(O)c1csc(S(N)(=O)=NC(=O)Nc2c3c(cc4c2OCC4)CCC3)n1` (single isomer, unassigned) [Example 353, (S) or (R)-4-(2-hydroxypropan-2-yl)-N′-((3,5,6,7-tetrahydro-2H-indeno[5,6-b]furan-8-yl)carbamoyl)thiazole-2-sulfonimidamide], for which the IC50 lay in the range of 1000 to 5000 nM.

`CC(C)(O)c1csc(S(N)(=O)=NC(=O)Nc2c3c(cc4c2OCC4)CCC3)n1` (single isomer, unassigned) [Example 354, (R) or (S)-4-(2-hydroxypropan-2-yl)-N′-((3,5,6,7-tetrahydro-2H-indeno[5,6-b]furan-8-yl)carbamoyl)thiazole-2-sulfonimidamide]: the IC50 lay within 8 to 40 nM.

Regarding `CC(C)(O)c1ncc(S(N)(=O)=NC(=O)Nc2c3c(cc4c2CC4)CC3)s1` (single isomer, unassigned) [Example 355, (R) or (S)-2-(2-hydroxypropan-2-yl)-N′-(tricyclo[6.2.0.03,6]deca-1,3(6),7-trien-2-ylcarbamoyl)thiazole-5-sulfonimidamide], the IC50 was less than 8 nM.

On to `CC(C)(O)c1ncc(S(N)(=O)=NC(=O)Nc2c3c(cc4c2CC4)CC3)s1` (single isomer, unassigned) [Example 356, (S) or (R)-2-(2-hydroxypropan-2-yl)-N′-(tricyclo[6.2.0.03,6]deca-1,3(6),7-trien-2-ylcarbamoyl)thiazole-5-sulfonimidamide], for which the IC50 lay in the range of 200 to 1000 nM.

Turning to `Cc1sc(S(N)(=O)=NC(=O)Nc2c3c(cc4c2CCC4)CCC3)nc1C(C)(C)O` (single isomer, unassigned) [Example 359, (R) or (S)-N′-((1,2,3,5,6,7-hexahydro-s-indacen-4-yl)carbamoyl)-4-(2-hydroxypropan-2-yl)-5-methylthiazole-2-sulfonimidamide], the IC50 is 8 to 40 nM.

In the case of `Cc1sc(S(N)(=O)=NC(=O)Nc2c3c(cc4c2CCC4)CCC3)nc1C(C)(C)O` (single isomer, unassigned) [Example 360, (S) or (R)-N′-((1,2,3,5,6,7-hexahydro-s-indacen-4-yl)carbamoyl)-4-(2-hydroxypropan-2-yl)-5-methylthiazole-2-sulfonimidamide], the IC50 lay within 200 to 1000 nM.

As for `CN(C)C(C)(C)c1ccc(S(N)(=O)=NC(=O)Nc2c3c(cc4c2CCC4)CCC3)cc1` (single isomer, unassigned) [Example 361, (R) or (S)-4-(2-(dimethylamino)propan-2-yl)-N′-((1,2,3,5,6,7-hexahydro-s-indacen-4-yl)carbamoyl)benzenesulfonimidamide], the IC50 fell in the range of 40 to 200 nM.

The record behind these values is US11724992B2 (Novartis AG, priority 2017, dated 2023).
